Paper PMC11823609, “Advancements in the fight against globally distributed OXA-48 carbapenemase: evaluating the new generation of carbapenemase inhibitors” (Antimicrobial Agents and Chemotherapy, 2025)
≈ marks a conversion by molar mass, not a printed value. Like-named read-outs stand apart in the source and are kept apart here.

Legend:
Experiment in all cases: microbe, parasite or virus in culture
[1] = system: E. cloacae strain 272 (MLST 78, ESBL); type: cell-based
Outline: (§1)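 MICs were determined in triplicate against WGS-characterized OXA-48-positive clinical isolates, with EUCAST 13.0 breakpoints applied. Each inhibitor was tested at 4 mg/L combined with ertapenem or ceftazidime as reporter substrates; compounds were also tested alone.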

[2] = system: K. pneumoniae strain 125 (MLST 307, ESBL); type: cell-based
Outline: as §1

[3] = system: E. coli strain 224 (MLST 127, No ESBL); type: cell-based; conditions: E. coli 224
Outline: as §1

[4] = system: K. pneumoniae strain 413 (MLST 147, ESBL); type: cell-based
Outline: as §1

[5] = system: E. coli strain 264 (MLST 131, No ESBL); type: cell-based; conditions: E. coli 264
Outline: as §1

[6] = system: K. pneumoniae strain 170 (MLST 307, No ESBL); type: cell-based; conditions: K. pneumoniae 170
Outline: as §1

[7] = system: E. coli strain 103 (MLST 10, ESBL); type: cell-based
Outline: as §1

[8] = system: K. pneumoniae strain 23 (MLST 392, ESBL); type: cell-based
Outline: as §1

[9] = system: E. coli strain 177 (MLST 131, ESBL); type: cell-based
Outline: as §1

[10] = system: E. cloacae strain 235 (MLST 171, ESBL); type: cell-based
Outline: as §1

[11] = system: E. cloacae strain 281 (MLST 78, No ESBL); type: cell-based; conditions: E. cloacae 281
Outline: as §1

[12] = system: K. pneumoniae strain 497 (MLST 11, No ESBL); type: cell-based; conditions: K. pneumoniae 497
[13] = system: K. pneumoniae strain 237 (MLST 147, No ESBL); type: cell-based; conditions: K. pneumoniae 237
Outline: as §1

[14] = system: K. pneumoniae strain 194 (MLST 392, No ESBL); type: cell-based; conditions: K. pneumoniae 194
Outline: as §1

[15] = system: E. cloacae strain 231 (MLST 171, No ESBL); type: cell-based; conditions: E. cloacae 231
Outline: as §1

[16] = system: K. pneumoniae strain 238 (MLST 15, ESBL); type: cell-based
Outline: as §1

[17] = system: K. pneumoniae strain 19 (MLST 11, ESBL); type: cell-based
Outline: as §1

[18] = system: K. pneumoniae strain 71 (MLST 15, No ESBL); type: cell-based; conditions: K. pneumoniae 71
Outline: as §1

[19] = system: E. coli HB4 ΔompC/F (CTX-M-14); type: cell-based, Escherichia coli
[20] = system: E. coli HB4 ΔompC/F (CTX-M-14 + OXA-48); type: cell-based, Escherichia coli
Outline: (§2)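 MICs were determined in triplicate for E. coli TG1 and HB4 transformants carrying OXA-48, alone or with CTX-M-14; HB4 is a low-permeability (ΔompC/F) background. Inhibitors were tested at 4 mg/L with ertapenem or ceftazidime as reporter substrates, and EUCAST 13.0 breakpoints applied.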

[21] = system: E. coli HB4 ΔompC/F (OXA-48); type: cell-based, Escherichia coli
Outline: as §2

[22] = system: E. coli HB4 ΔompC/F; type: cell-based, Escherichia coli
Outline: as §2

[23] = ceftazidime alone or with BLI at 4 mg/L
[24] = Escherichia coli, BL alone or BL/BLI: AVI, REL, TAN, DUR 4 mg/L, VAB, XER 8 mg/L, ZID, NAC 1:1, read-out: MIC
[25] = Klebsiella pneumoniae, BL alone or BL/BLI: AVI, REL, TAN, DUR 4 mg/L, VAB, XER 8 mg/L, ZID, NAC 1:1, read-out: MIC
[26] = Enterobacter cloacae, BL alone or BL/BLI: AVI, REL, TAN, DUR 4 mg/L, VAB, XER 8 mg/L, ZID, NAC 1:1, read-out: MIC
[27] = Escherichia coli, β-lactamase inhibitor alone, read-out: MIC
[28] = Klebsiella pneumoniae, β-lactamase inhibitor alone, read-out: MIC
[29] = Enterobacter cloacae, β-lactamase inhibitor alone, read-out: MIC

With `CC(C)(O/N=C(\C(=O)N[C@@H]1C(=O)N2C(C(=O)[O-])=C(C[n+]3ccccc3)CS[C@H]12)c1csc(N)n1)C(=O)O` [CAZ, ceftazidime] the MIC ([1]; E. cloacae 272, ceftazidime alone or with BLI at 4 mg/L) was ≥256 µg/mL, the MIC ([1]; Enterobacter cloacae) was ≥ 256 µg/mL and the MIC ([2]; K. pneumoniae 125, ceftazidime alone or with BLI at 4 mg/L) was 64 µg/mL. It also gave an MIC ([2]; Klebsiella pneumoniae) of 64 µg/mL, an MIC [3, 23] of 0.25 µg/mL and an MIC [3, 24] of 0.25 µg/mL. For the same compound, the MIC ([4]; K. pneumoniae 413, ceftazidime alone or with BLI at 4 mg/L) was 32 µg/mL, the MIC ([4]; Klebsiella pneumoniae) was 32 µg/mL and the MIC [5, 23] was 0.25 µg/mL. The MIC [5, 24] was 0.25 µg/mL, the MIC [6, 23] was 0.5 µg/mL and the MIC [6, 25] was 0.5 µg/mL. The MIC ([7]; E. coli 103, ceftazidime alone or with BLI at 4 mg/L) was 4 µg/mL, the MIC ([7]; Escherichia coli) was 4 µg/mL and the MIC ([8]; K. pneumoniae 23, ceftazidime alone or with BLI at 4 mg/L) was 128 µg/mL. For the same compound, the MIC ([8]; Klebsiella pneumoniae) was 128 µg/mL, the MIC ([9]; E. coli 177, ceftazidime alone or with BLI at 4 mg/L) was 128 µg/mL and the MIC ([9]; Escherichia coli) was 128 µg/mL. For the same compound, the MIC ([10]; E. cloacae 235, ceftazidime alone or with BLI at 4 mg/L) was 128 µg/mL, the MIC ([10]; Enterobacter cloacae) was 128 µg/mL and the MIC [11, 23] was 0.5 µg/mL. The MIC [11, 26] was 0.5 µg/mL, the MIC [12, 23] was 0.5 µg/mL and the MIC [12, 25] was 0.5 µg/mL. It also gave an MIC [13, 23] of 0.25 µg/mL, an MIC [13, 25] of 0.25 µg/mL and an MIC [14, 23] of 0.5 µg/mL. The MIC [14, 25] was 0.5 µg/mL, the MIC [15, 23] was 1 µg/mL and the MIC [15, 26] was 1 µg/mL. It also gave an MIC ([16]; K. pneumoniae 238, ceftazidime alone or with BLI at 4 mg/L) of 32 µg/mL, an MIC ([16]; Klebsiella pneumoniae) of 32 µg/mL and an MIC ([17]; K. pneumoniae 19, ceftazidime alone or with BLI at 4 mg/L) of 32 µg/mL. It also gave an MIC ([17]; Klebsiella pneumoniae) of 32 µg/mL, an MIC [18, 23] of 0.5 µg/mL and an MIC [18, 25] of 0.5 µg/mL. The MIC ([19]; E. coli HB4 ΔompC/F (CTX-M-14), ceftazidime alone or with BLI at 4 mg/L) was 16 µg/mL (≈ 29.3 µM), the MIC ([19]; Escherichia coli) was 16 µg/mL (≈ 29.3 µM) and the MIC ([20]; E. coli HB4 ΔompC/F (CTX-M-14 + OXA-48), ceftazidime alone or with BLI at 4 mg/L) was 16 µg/mL. It also gave an MIC ([20]; Escherichia coli) of 16 µg/mL (≈ 29.3 µM), an MIC ([21]; E. coli HB4 ΔompC/F (OXA-48), ceftazidime alone or with BLI at 4 mg/L) of 1 µg/mL (≈ 1.83 µM) and an MIC ([21]; Escherichia coli) of 1 µg/mL (≈ 1.83 µM). For the same compound, the MIC ([22]; E. coli HB4 ΔompC/F, ceftazidime alone or with BLI at 4 mg/L) was 1 µg/mL (≈ 1.83 µM) and the MIC ([22]; Escherichia coli) was 1 µg/mL (≈ 1.83 µM).
Work on `O=C(O)c1c(F)ccc2c1OB(O)[C@@H]1C[C@H]21` [Xeruborbactam, xeruborbactam] yielded an MIC ([1]; Enterobacter cloacae) of 32 µg/mL, an MIC ([2]; Klebsiella pneumoniae) of 32 µg/mL and an MIC [3, 27] of 32 µg/mL. The MIC ([4]; Klebsiella pneumoniae) was 64 µg/mL, the MIC [5, 27] was 32 µg/mL and the MIC [6, 28] was 32 µg/mL. For the same compound, the MIC ([7]; Escherichia coli) was 64 µg/mL, the MIC ([8]; Klebsiella pneumoniae) was 32 µg/mL and the MIC ([9]; Escherichia coli) was 64 µg/mL. For the same compound, the MIC ([10]; Enterobacter cloacae) was ≥ 128 µg/mL, the MIC [11, 29] was 32 µg/mL and the MIC [12, 28] was 64 µg/mL. For the same compound, the MIC [13, 28] was 64 µg/mL, the MIC [14, 28] was 32 µg/mL and the MIC [15, 29] was 32 µg/mL. It also gave an MIC ([16]; Klebsiella pneumoniae) of 64 µg/mL, an MIC ([17]; Klebsiella pneumoniae) of 32 µg/mL and an MIC [18, 28] of 32 µg/mL. The MIC ([19]; Escherichia coli) was 16 µg/mL (≈ 72.1 µM), the “decrease of ertapenem MIC with BLI” value ([20]; E. coli HB4 coproducing CTX-M-14 and OXA-48, BLI 4 mg/L) was 256 fold and the MIC ([20]; Escherichia coli) was 16 µg/mL (≈ 72.1 µM). For the same compound, the MIC ([21]; Escherichia coli) was 16 µg/mL (≈ 72.1 µM) and the MIC ([22]; Escherichia coli) was 16 µg/mL (≈ 72.1 µM).
